Laboratory results taken from article PMC8049364, “Quantification of Macrophage-Driven Inflammation During Myocardial Infarction with ^18F-LW223, a Novel TSPO Radiotracer with Binding Independent of the rs6971 Human Polymorphism” (Journal of Nuclear Medicine, 2021).

Assay: Dosimetry from whole-body PET in mice (OLINDA/EXM, estimated for humans)
Format: in vivo
Method: Thirty-two PET scans were performed with ^18F-LW223 (17.8 ± 1.5 MBq, intravenous bolus, mean ± SEM). Naïve and MI rat scans were acquired immediately after intravenous bolus injection of ^18F-LW223. […] Dosimetry studies were conducted using mice and 240-min PET scans.
The following organs were identified as source organs: brain, heart, lung, gallbladder, liver, gut, adrenals, kidneys, and bladder. A whole-body VOI was drawn around the animal body and was used to quantify whole-body remainder activity as whole-body activity minus source-organ activity. At each time point, the measured activity of the source organs was expressed as the percentage injected dose. The residence time (τ), defined as the ratio of accumulated activity in the target organ (Ā) and injected activity (A0) (i.e., τ = Ā/A0 ([20])), was calculated as previously described ([21]). Calculated τ was normalized on the basis of the factors shown in Supplemental Table 3 ([22]–[26]) and entered into OLINDA/EXM software, version 1.0, to estimate organ doses and effective doses.
Organ Mouse Human Correction Factor
% Total body weight % Total body weight
Supplemental Table 3. Scaling factors for different organs in mice and humans based on their percentage contribution to total body weight. Data presented in this table was calculated based on previously published data.

CC[C@@H](C)N(C)C(=O)c1nc2ccccc2c(-c2ccccc2)c1C[18F] [^18F-LW223]
Effective dose (Female (n = 5)): 0.02 mSv/MBq | Estimated absorbed dose, Adrenals (Female (n = 5)): 3.67 ×10^−2 mGy/MBq | Estimated absorbed dose, Brain (Female (n = 5)): 0.56 ×10^−2 mGy/MBq | Estimated absorbed dose, Breasts (Female (n = 5)): 0.86 ×10^−2 mGy/MBq | Estimated absorbed dose, Gallbladder wall (Female (n = 5)): 2.46 ×10^−2 mGy/MBq | Estimated absorbed dose, Heart wall (Female (n = 5)): 1.89 ×10^−2 mGy/MBq | Estimated absorbed dose, Kidneys (Female (n = 5)): 1.54 ×10^−2 mGy/MBq | Estimated absorbed dose, Liver (Female (n = 5)): 1.95 ×10^−2 mGy/MBq | Estimated absorbed dose, Lower large intestine wall (Female (n = 5)): 9.26 ×10^−2 mGy/MBq | Estimated absorbed dose, Lung (Female (n = 5)): 3.31 ×10^−2 mGy/MBq | Estimated absorbed dose, Muscle (Female (n = 5)): 0.98 ×10^−2 mGy/MBq | Estimated absorbed dose, Osteogenic cells (Female (n = 5)): 1.52 ×10^−2 mGy/MBq | Estimated absorbed dose, Ovaries (Female (n = 5)): 1.66 ×10^−2 mGy/MBq | Estimated absorbed dose, Pancreas (Female (n = 5)): 1.26 ×10^−2 mGy/MBq | Estimated absorbed dose, Red marrow (Female (n = 5)): 0.98 ×10^−2 mGy/MBq | Estimated absorbed dose, Skin (Female (n = 5)): 0.74 ×10^−2 mGy/MBq | Estimated absorbed dose, Small intestine (Female (n = 5)): 1.30 ×10^−2 mGy/MBq | Estimated absorbed dose, Spleen (Female (n = 5)): 1.11 ×10^−2 mGy/MBq | Estimated absorbed dose, Stomach wall (Female (n = 5)): 1.15 ×10^−2 mGy/MBq | Estimated absorbed dose, Thymus (Female (n = 5)): 1.07 ×10^−2 mGy/MBq | Estimated absorbed dose, Thyroid (Female (n = 5)): 0.89 ×10^−2 mGy/MBq | Estimated absorbed dose, Total body (Female (n = 5)): 1.07 ×10^−2 mGy/MBq | Estimated absorbed dose, Upper large intestine wall (Female (n = 5)): 1.24 ×10^−2 mGy/MBq | Estimated absorbed dose, Urinary bladder wall (Female (n = 5)): 1.48 ×10^−2 mGy/MBq | Estimated absorbed dose, Uterus (Female (n = 5)): 1.29 ×10^−2 mGy/MBq | Effective dose (Male (n = 8)): 0.02 mSv/MBq | Estimated absorbed dose, Adrenals (Male (n = 8)): 2.22 ×10^−2 mGy/MBq | Estimated absorbed dose, Brain (Male (n = 8)): 0.59 ×10^−2 mGy/MBq | Estimated absorbed dose, Breasts (Male (n = 8)): 0.72 ×10^−2 mGy/MBq | Estimated absorbed dose, Gallbladder wall (Male (n = 8)): 2.01 ×10^−2 mGy/MBq | Estimated absorbed dose, Heart wall (Male (n = 8)): 2.03 ×10^−2 mGy/MBq | Estimated absorbed dose, Kidneys (Male (n = 8)): 1.57 ×10^−2 mGy/MBq | Estimated absorbed dose, Liver (Male (n = 8)): 1.30 ×10^−2 mGy/MBq | Estimated absorbed dose, Lower large intestine wall (Male (n = 8)): 7.82 ×10^−2 mGy/MBq | Estimated absorbed dose, Lung (Male (n = 8)): 3.10 ×10^−2 mGy/MBq | Estimated absorbed dose, Muscle (Male (n = 8)): 0.80 ×10^−2 mGy/MBq | Estimated absorbed dose, Osteogenic cells (Male (n = 8)): 1.20 ×10^−2 mGy/MBq | Estimated absorbed dose, Pancreas (Male (n = 8)): 1.03 ×10^−2 mGy/MBq | Estimated absorbed dose, Red marrow (Male (n = 8)): 0.82 ×10^−2 mGy/MBq | Estimated absorbed dose, Skin (Male (n = 8)): 0.61 ×10^−2 mGy/MBq | Estimated absorbed dose, Small intestine (Male (n = 8)): 1.11 ×10^−2 mGy/MBq | Estimated absorbed dose, Spleen (Male (n = 8)): 0.91 ×10^−2 mGy/MBq | Estimated absorbed dose, Stomach wall (Male (n = 8)): 0.94 ×10^−2 mGy/MBq | Estimated absorbed dose, Testes (Male (n = 8)): 0.77 ×10^−2 mGy/MBq | Estimated absorbed dose, Thymus (Male (n = 8)): 0.90 ×10^−2 mGy/MBq | Estimated absorbed dose, Thyroid (Male (n = 8)): 0.79 ×10^−2 mGy/MBq | Estimated absorbed dose, Total body (Male (n = 8)): 0.89 ×10^−2 mGy/MBq | Estimated absorbed dose, Upper large intestine wall (Male (n = 8)): 1.00 ×10^−2 mGy/MBq | Estimated absorbed dose, Urinary bladder wall (Male (n = 8)): 1.16 ×10^−2 mGy/MBq | whole-body effective dose (female animals): 24.5 μSv/MBq | whole-body effective dose (male animals): 20.5 μSv/MBq | estimated dosimetry (effective dose) (mouse, in vivo): 0.020 mSv/MBq | critical organ (dosimetry) (naïve mice): lower large intestine | Effective dose (range over male and female): 20.5–24.5 μSv/MBq
